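Following 48 hours of exposure in 96-well plates, responses at five concentrations were used to interpolate endpoints linearly. The concentration for 50% growth inhibition is given as GI50. TGI: total growth inhibition.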
Experiments:
Assay in all cases: NCI-60 cell line screen, 48 h
A549 NSCLC = system: A549 NSCLC
CAKI-1 renal = system: CAKI-1 renal
CCRF-CEM leukemia = system: CCRF-CEM leukemia
HCC-2998 colon = system: HCC-2998 colon
HOP-62 NSCLC = system: HOP-62 NSCLC
SF-295 CNS = system: SF-295 CNS
SK-OV-3 ovarian = system: SK-OV-3 ovarian
TK-10 renal = system: TK-10 renal

SMILES | GI50 (A549 NSCLC) [µM] | TGI (A549 NSCLC) [µM] | GI50 (CAKI-1 renal) [µM] | TGI (CAKI-1 renal) [µM] | GI50 (CCRF-CEM leukemia) [µM] | TGI (CCRF-CEM leukemia) [µM] | GI50 (HCC-2998 colon) [µM] | TGI (HCC-2998 colon) [µM] | GI50 (HOP-62 NSCLC) [µM] | TGI (HOP-62 NSCLC) [µM] | GI50 (SF-295 CNS) [µM] | TGI (SF-295 CNS) [µM] | GI50 (SK-OV-3 ovarian) [µM] | TGI (SK-OV-3 ovarian) [µM] | GI50 (TK-10 renal) [µM] | TGI (TK-10 renal) [µM]
COc1ccc(COc2ccc(Cc3cnc(N)nc3N)cc2OC)cc1 | > 23.4 | > 25 | > 24.1 | > 25 | > 25 | > 25 | > 25 | > 25 | > 18.4 | > 25 | 10.4 | > 25 | > 25 | > 25 | > 25 | > 25
C#Cc1cccc(NC(=O)C2CCCCN2C(=O)CCl)c1 (configuration not stated) | > 82.5 | > 82.5 | 13.4 | 26.3 | 3.99 | 50.1 | 28.6 | > 82.5 | > 82.5 | > 82.5 | > 82.5 | > 82.5 | > 82.5 | > 82.5 | 15.6 | 33.6
O=C(Nc1cccc(Cl)c1)Nc1cc(C(F)(F)F)ccc1Cl | 2.72 | 8.98 | – | – | 3.24 | > 100 | 2.53 | 5.88 | 2.72 | 9.23 | – | – | 3.54 | 16.5 | 4.29 | 39.5
Cc1cc(C2CC(O)C(CO)O2)c(Br)cc1Br (configuration not stated) | > 100 | > 100 | > 100 | > 100 | > 100 | > 100 | > 100 | > 100 | > 100 | > 100 | > 100 | > 100 | > 100 | > 100 | > 100 | > 100
CCCCCCCN(CCCCCCC)C(=N)c1ccc(OC)c2ccccc12 | 1.37 | 2.82 | 1.43 | 2.83 | 1.76 | 3.63 | – | – | 1.3 | 2.79 | 1.24 | 2.72 | 1.66 | 3.14 | 1.46 | 2.88
CN1c2cccc[c]2[Sn]([CH3])([CH3])[c]2ccccc21 | < 0.0132 | 0.0932 | 0.01 | < 0.0356 | < 0.01 | 0.119 | < 0.01 | 0.0247 | < 0.0137 | 0.0714 | < 0.0165 | < 0.034 | < 0.0144 | < 0.0326 | < 0.0192 | 0.135
Nc1nc(N)c2c(n1)NC(c1ccc(Cl)cc1)C1CCc3ccccc3C1=N2 (configuration not stated) | 11.8 | 25 | 4.33 | 18.8 | – | – | 12.2 | 24.7 | 11.5 | 23.7 | 3.37 | 14.7 | 11 | 23 | 8.2 | 23.2
COc1cc(-c2cc(-c3ccc(Nc4nc(Nc5ccc(Cl)cc5)nc(Nc5ccc(Cl)cc5)n4)cc3)no2)cc(OC)c1OC | 13.5 | > 100 | 5.53 | > 100 | 2.16 | 11.9 | 13.1 | 91.3 | 11 | 84.2 | 35.1 | > 100 | > 100 | > 100 | 25.4 | > 100
C=C1[C@H](O)C[C@@H](C(C)C(O)CC=C(C)C)[C@@H](O)[C@@H]2C(C)=CC[C@@H]12 (some centres not stated) | > 100 | > 100 | > 100 | > 100 | 55.6 | > 100 | – | – | > 100 | > 100 | > 100 | > 100 | > 100 | > 100 | > 100 | > 100
OCC1OC(n2cnc3cc(Cl)c(Cl)cc32)C(O)C1O (configuration not stated) | 18.8 | > 72.4 | 14.2 | 47.8 | 38.8 | > 100 | 12.7 | 27 | 9.13 | 35.4 | 24.6 | 85.2 | 37.9 | > 100 | 29.3 | > 86.4
CC(=O)Nc1ccc2c(c1)[nH]c(=O)c1cc(NC(C)=O)ccc12 | > 100 | > 100 | > 100 | > 100 | 53.5 | > 100 | > 100 | > 100 | > 100 | > 100 | > 100 | > 100 | > 100 | > 100 | > 100 | > 100
Cc1c(-c2c(F)cc(C(N)=O)c3[nH]c4c(c23)CC[C@H](C(C)(C)O)C4)cccc1-n1c(=O)c2cccc(F)c2n(C)c1=O | 2.05 | > 100 | 2.08 | > 100 | 4.52 | > 100 | 2.81 | 51.5 | 3.39 | > 100 | 4.36 | 39.6 | 6.35 | > 100 | 2.04 | 8.03
Cn1cc(-c2nc(-c3c[nH]c4ccccc34)cs2)c2cccnc21 | 0.608 | > 100 | 0.273 | > 100 | 0.353 | > 100 | 0.844 | > 79.7 | 0.626 | 59.9 | 0.268 | 19.8 | 0.523 | > 82.4 | 1.46 | 65.1
COc1cc(OC)c(OC)cc1/C=C/c1ccc2ccccc2n1 | – | > 10 | – | > 10 | – | > 10 | – | > 10 | – | > 10 | – | > 10 | – | > 10 | – | > 10
OCC1OC(N2CCN(C3OC(CO)C(O)C(O)C3O)CC2)C(O)C(O)C1O (configuration not stated) | – | > 100 | – | > 100 | – | – | – | > 100 | – | > 100 | – | > 100 | – | > 100 | – | > 100
Nc1[nH]c(=S)[nH]c(=O)c1N=Nc1c(Br)cc(S(N)(=O)=O)cc1Br | – | > 100 | – | > 100 | – | > 100 | – | – | – | > 100 | – | > 100 | – | > 100 | – | > 100
CCN(CC(O)COc1ccc2c(c1)[n+]([O-])nc(N)[n+]2[O-])C(C)=O (configuration not stated) | – | > 100 | – | > 100 | – | > 100 | – | – | – | > 100 | – | > 100 | – | > 100 | – | > 100

SMILES | GI50 (A549 NSCLC) [µM] | TGI (A549 NSCLC) [µM] | GI50 (CAKI-1 renal) [µM] | TGI (CAKI-1 renal) [µM] | GI50 (CCRF-CEM leukemia) [µM] | TGI (CCRF-CEM leukemia) [µM] | GI50 (HCC-2998 colon) [µM] | TGI (HCC-2998 colon) [µM] | GI50 (HOP-62 NSCLC) [µM] | TGI (HOP-62 NSCLC) [µM] | GI50 (SF-295 CNS) [µM] | TGI (SF-295 CNS) [µM] | GI50 (SK-OV-3 ovarian) [µM] | TGI (SK-OV-3 ovarian) [µM] | GI50 (TK-10 renal) [µM] | TGI (TK-10 renal) [µM]
Nc1cc2c3ccccc3ccc2c2ccccc12 | 23.9 | > 100 | > 100 | > 100 | 8 | > 100 | > 100 | > 100 | 30.6 | > 100 | > 100 | > 100 | > 100 | > 100 | > 100 | > 100
CN1CCN(CCCn2c3c(sc4ncccc43)c(=O)n3nnc(-c4ccccc4)c23)CC1 | 1.54 | 2.92 | 1.59 | 3.19 | 1.57 | 4.08 | 5.12 | 9.97 | 1.63 | 3.4 | 1.73 | 3.36 | 18.4 | 33.3 | 3.15 | 10.7
c1ccc(OCC[P+](c2ccccc2)(c2ccccc2)c2ccccc2)cc1 | 2.96 | 82.5 | 25.4 | > 100 | 0.981 | > 41.4 | 0.702 | 12.9 | 1.41 | 11.1 | 2.05 | 15.7 | 2.08 | 8.16 | 1.73 | 14.5
Cc1cccc(Nc2ncc(-c3ccccc3)o2)c1 | > 25 | > 25 | > 25 | > 25 | > 25 | > 25 | > 25 | > 25 | > 25 | > 25 | > 25 | > 25 | > 25 | > 25 | > 25 | > 25
COC1C[C@H](O[C@@H]2C[C@H](O[C@@H]3C[C@H](O[C@@H]4C(=O)c5c(cc6cc(O[C@H]7C[C@@H](O[C@H]8C[C@@H](O)[C@H](O)C(C)O8)[C@H](O)C(C)O7)c(C)c(O)c6c5O)C[C@H]4C(OC)C(=O)[C@@H](O)[C@@H](C)O)OC(C)[C@H]3O)OC(C)[C@@H]2O)OC(C)[C@@H]1O (some centres not stated) | 0.185 | > 32.5 | 8 | > 32.5 | 0.127 | > 32.5 | 0.0961 | 0.615 | 0.0752 | > 32.5 | 0.104 | > 32.5 | 0.105 | > 32.5 | 0.173 | 6.4
c1ccc2cc(Cn3c(-c4cccc5ccccc45)[n+](Cc4ccc5ccccc5c4)c4c5ccccc5c5ccccc5c43)ccc2c1 | – | – | – | – | 0.362 | 2.31 | 0.328 | 1.59 | 0.387 | 2.45 | 0.203 | 1.05 | 0.322 | 1.62 | – | –
CC#CC#C/C=C1/C=CC2(CCCCO2)O1 (configuration not stated) | – | > 100 | – | > 100 | – | 53.9 | – | > 100 | – | – | – | > 100 | – | > 100 | – | > 100
COc1cc(/C=C/[N+](=O)[O-])cc(OC)c1 | 3.94 | 16.8 | – | – | 2.02 | 6.32 | 1.98 | 3.59 | 2.93 | 10.4 | 2.54 | 7.29 | 11.1 | 23.1 | – | –
NC(=O)C1CCCN1Cc1ccc2c(c1)OCO2 (configuration not stated) | – | > 100 | – | > 100 | – | > 100 | – | – | – | > 100 | – | > 100 | – | > 100 | – | > 100
COc1ccc(N2CCN(c3nc(-c4ccccn4)nc4sc5c(c34)CCCCCC5)CC2)cc1 | 3.25 | > 100 | 5.4 | > 100 | 4.32 | > 100 | 10.3 | > 100 | 11.4 | > 100 | – | – | > 100 | > 100 | > 100 | > 100
Clc1ccc(Nc2nnc(COc3ccccc3)c3ccccc23)cc1 | 2.87 | 12.3 | – | – | 2.8 | 14.2 | 3.81 | 8.36 | 2.51 | 7.74 | 1.65 | 6.7 | 2.38 | 9.96 | – | –
COC(=O)C1(N2CCOCC2)CCC([C@@H](c2ccccc2)C(C)[N+](=O)[O-])C1 (some centres not stated) | – | > 100 | – | – | – | 20.3 | – | > 100 | – | > 100 | – | > 100 | – | > 100 | – | > 100
Oc1ccc(Cl)cc1N=Nc1c(O)ccc2ccccc12 | – | > 100 | – | > 100 | – | > 100 | – | – | – | > 100 | – | > 100 | – | > 100 | – | > 100
C[C@H]1O[C@@H](O[C@H]2[C@@H](O)C[C@H](O[C@H]3[C@@H](O)C[C@H](O[C@H]4CC[C@]5(C)C6CC[C@]7(C)[C@@H](C8=CC(=O)OC8)CC[C@]7(O)C6CC[C@@H]5C4)O[C@@H]3C)O[C@@H]2C)C[C@H](O)[C@@H]1O (some centres not stated) | 0.00776 | 0.0155 | 0.0126 | 0.0339 | – | – | 0.0361 | 0.174 | 0.0118 | 0.0295 | 0.014 | 0.0545 | 0.019 | 0.067 | 0.0165 | 0.0504
COc1cccc(/C=C/C(=O)c2cc3c(N)c(C(=O)Nc4ccccc4)sc3nc2C)c1 | 1.51 | 6.23 | 0.933 | 1.91 | – | – | 0.901 | 1.66 | 1.09 | 2.44 | 6.27 | > 50 | 4.96 | 19.8 | 1.56 | 5.47
O=C(COc1ccc(Cl)cc1Cl)NNc1ccc([N+](=O)[O-])cc1 | > 100 | > 100 | > 100 | > 100 | – | – | > 100 | > 100 | 19.7 | 38.6 | 19.7 | 40.1 | 24 | 55 | 30.1 | 74.2
O=C(Nc1ccn(C2CCC(COC(c3ccccc3)(c3ccccc3)c3ccccc3)O2)c(=O)n1)c1ccccc1 (configuration not stated) | – | 13 | – | 13.4 | – | 9.04 | – | 29.2 | – | 16.3 | – | 5.9 | – | 26.3 | – | –
